Assay results taken from ChEMBL document CHEMBL5055686, “Discovery of AL-GDa62 as a Potential Synthetic Lethal Lead for the Treatment of Gastric Cancer” (J Med Chem, 2021).
Activity calls are given as the source filed them. The rule behind the calls is not given here.

Assays:
MCF-10A [1] = assay: Antitumor activity against human spontaneously immortalized wild type MCF-10A cells assessed as cell numbers measured after 48 hrs; type: functional, cell-based; conditions: Homo sapiens, MCF-10A, 48 h; read-out: EC50
MCF-10A [2] = assay: Antitumor activity against human spontaneously immortalized CDH-/- MCF10A cells assessed as cell numbers measured after 48 hrs; type: functional, cell-based; conditions: Homo sapiens, MCF-10A, 48 h; read-out: EC50
[3] = Ratio of EC50 for antitumor activity against human spontaneously immortalized wild type MCF10A cells assessed as cell numbers measured after 48 hrs to antitumor activity against human spontaneously immortalized CDH-/- MCF10A cells assessed as cell numbers measured after 48 hrs; type: functional, MCF-10A
MCF-10A [4] = assay: Antitumor activity against human spontaneously immortalized CDH-/- MCF10A cells assessed as cell numbers at 3.13 uM measured after 48 hrs; type: functional
NCI-N87 [5] = assay: Antitumor activity against human wild type NCI-N87 cells assessed as cell numbers measured after 48 hrs; type: functional, cell-based; conditions: NCI-N87, 48 h
NCI-N87 [6] = assay: Antitumor activity against human CDH-/- NCI-N87cells assessed as cell numbers measured after 48 hrs; type: functional, cell-based; conditions: NCI-N87, 48 h
[7] = Ratio of EC50 for antitumor activity against human NCI-N87 cells assessed as cell numbers measured after 48 hrs to antitumor activity against human CDH-/- NCI-N87 cells assessed as cell numbers measured after 48 hrs; type: functional
MCF-10A [8] = assay: Induction of apoptosis in human spontaneously immortalized wild type MCF10A cells assessed as apoptotic cells at 12.5 uM measured after 48 hrs by flow cytometry-based annexin-V-FITC/propidium iodide (PI) apoptosis assay; type: functional
MCF-10A [9] = assay: Induction of apoptosis in human spontaneously immortalized CDH-/- MCF10A cells assessed as apoptotic cells at 12.5 uM measured after 48 hrs by flow cytometry-based annexin-V-FITC/propidium iodide (PI) apoptosis assay; type: functional
MCF-10A [10] = assay: Induction apoptosis in human spontaneously immortalized wild type MCF10A cells assessed as viable cells at 6.25 uM measured after 48 hrs by flow cytometry-based annexin-V-FITC/propidium iodide apoptosis assay (reference value: 94.4%); type: functional; conditions: read-out: Activity
MCF-10A [11] = assay: Induction apoptosis in human spontaneously immortalized wild type MCF10A cells assessed as early apoptotic cells at 6.25 uM measured after 48 hrs by flow cytometry-based annexin-V-FITC/propidium iodide (PI) apoptosis assay (reference value: 1.2%); type: functional
MCF-10A [12] = assay: Induction apoptosis in human spontaneously immortalized wild type MCF10A cells assessed as late apoptotic cells at 6.25 uM measured after 48 hrs by flow cytometry-based annexin-V-FITC/propidium iodide (PI) apoptosis assay (reference value: 4.2%); type: functional
MCF-10A [13] = assay: Induction apoptosis in human CDH-/- MCF10A cells assessed as viable cells at 6.25 uM measured after 48 hrs by flow cytometry-based annexin-V-FITC/propidium iodide (PI) apoptosis assay (reference value: 93.6%); type: functional; conditions: read-out: Activity
MCF-10A [14] = assay: Induction apoptosis in human CDH-/- MCF10A cells assessed as early apoptotic cells at 6.25 uM measured after 48 hrs by flow cytometry-based annexin-V-FITC/propidium iodide (PI) apoptosis assay (reference value: 2.9%); type: functional
MCF-10A [15] = assay: Induction apoptosis in human CDH-/- MCF10A cells assessed as late apoptotic cells at 6.25 uM measured after 48 hrs by flow cytometry-based annexin-V-FITC/propidium iodide (PI) apoptosis assay (reference value: 3.2%); type: functional
MCF-10A [16] = assay: Induction apoptosis in human spontaneously immortalized wild type MCF10A cells assessed as necrotic cells at 3.25 uM measured after 48 hrs by flow cytometry-based annexin-V-FITC/propidium iodide (PI) apoptosis assay; type: functional
MCF-10A [17] = assay: Induction apoptosis in human spontaneously immortalized wild type MCF10A cells assessed as necrotic cells at 6.25 uM measured after 48 hrs by flow cytometry-based annexin-V-FITC/propidium iodide (PI) apoptosis assay; type: functional
[18] = Anticancer activity against mouse mammary organoids assessed as reduction in growth by measuring TdTom CdhI-/- at 12.5 uM incubated for 48 hrs; type: functional, Mammary gland; parameters: scale not given: the % may be the effect or the level left
[19] = Anticancer activity against mouse gastric organoids assessed as reduction in growth by measuring TdTom CdhI-/- at 1.56 uM incubated for 48 hrs; type: functional, Gastric gland; parameters: scale not given: the % may be the effect or the level left
MCF-10A [20] = assay: Binding affinity to TCOF1 in human spontaneously immortalized CDH-/- MCF10A cell lysates assessed as change in melting temperature at 3.125 uM for 3 hrs by thermal proteome profiling assay
[21] = target: SUMO-conjugating enzyme UBC9 (Homo sapiens) (UniProt P63279); assay: Binding affinity to SUMO-conjugating UBC9 in human spontaneously immortalized CDH-/- MCF10A cell lysates assessed as change in melting temperature at 3.125 uM for 3 hrs by thermal proteome profiling assay; conditions: MCF-10A
[22] = target: Actin-related protein 2/3 complex subunit 5 (Homo sapiens) (UniProt O15511); assay: Binding affinity to ARPC5 in human spontaneously immortalized CDH-/- MCF10A cell lysates assessed as change in melting temperature at 3.125 uM for 3 hrs by thermal proteome profiling assay; conditions: MCF-10A
Homo sapiens = species on record: Homo sapiens; assay: Inhibition of SUMOylation of GST-tagged RanGAP1 (unknown origin) protein using SUMO1 and UBC9 up to 3.13 uM by Western blotting analysis

Sequence of SUMO-conjugating enzyme UBC9 (Homo sapiens) (P63279 whole entry): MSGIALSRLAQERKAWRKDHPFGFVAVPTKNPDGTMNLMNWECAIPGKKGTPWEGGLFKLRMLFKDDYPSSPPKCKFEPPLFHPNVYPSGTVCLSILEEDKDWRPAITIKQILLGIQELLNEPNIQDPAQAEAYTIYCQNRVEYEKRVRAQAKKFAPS

In the case of Cc1cc(NCc2ccc(F)cc2)c2cc(OCCCN3CCCC3)ccc2n1, the EC50 (MCF-10A [1]) is reported as 3.2 µM, the EC50 (MCF-10A [2]) is reported as 2 µM and the “Ratio EC50” value [3] is reported as 1.6. The inhibition at 3.13 µM (MCF-10A [4]) was 70%, the EC50 (NCI-N87 [5]) was 8.5 µM and the EC50 (NCI-N87 [6]) was 16.4 µM. The “Ratio EC50” value [7] was 1.9, the Activity (MCF-10A [8]) was over 90% and the Activity (MCF-10A [9]) was over 90%. It also gave a viability at 6.25 µM (MCF-10A [10]) of 64.9%, an Activity (MCF-10A [11]) of 23.5% and an Activity (MCF-10A [12]) of 11.2%. For the same molecule, the viability at 6.25 µM (MCF-10A [13]) was 26.7%, the Activity (MCF-10A [14]) was 24.7% and the Activity (MCF-10A [15]) was 48%. For the same molecule, the Activity (MCF-10A [16]) was 5%, the Activity (MCF-10A [17]) was 32% and the Activity [18] was 21.3%. The Activity [19] was 40%, the ΔTm (MCF-10A [20]) was 8.32 °C and the ΔTm [21] was 5.71 °C. The ΔTm [22] was 3.72 °C and the inhibition (Homo sapiens) was “Active”.
